Experimental data taken from patent US20170007568A1, “USE OF COMPOSITION CONTAINING IRON (II) AMINO ACID CHELATE IN PREPARATION OF DRUG FOR AMELIORATING DIABETES” (PROFEAT BIOTECHNOLOGY CO., LTD., priority 2014, published 2017).

What was measured:
Assay type in all cases: in vivo, C57BL/6JNR male mice
[1] = test system: type 2 diabetes mice (nicotinamide/streptozotocin + high fat diet); assay: Insulin (ELISA) of drug-induced diabetic mice; details: dose not printed, one month
Procedure: (§1) C57BL/6JNR male mice at 6 weeks of age (purchased from National Laboratory Animal Center) were fed with normal diet for 1 week. Each of the mice was injected intraperitoneally with 240 mg/kg nicotinamide, and after 15 minutes, each of the mice was injected intraperitoneally with 100 mg/kg streptozotocin. Two days later, each of the mice was injected with nicotinamide and streptozotocin with the same dosages and method as shown above, followed by feeding with the high fat diet (60% fat). Two months later, the mice having fasting blood glucose higher than 140 mg/dl and impaired glucose tolerance (which meant that the blood glucose values were not measured within normal range after injecting glucose for 2 hours) were picked to be type 2 diabetes mice.
(§2) The mice were divided into 4 groups which included a control group (supplied with phosphate solution), a metformin (Met) group, a composition A1 with low dose (4 mg/kg/day) group, and a composition A1 with high dose (12 mg/kg/day) group. The weights of the mice were measured every 3 days, and the blood glucose values, oral glucose tolerance assay (OGTT), glycated hemoglobin (HbA1c) and insulin variances of the mice were measured every 4 weeks.
(§3) The blood glucose values were measured with a Chemistry Analyzer (Hitachi, Ltd., Japan). […] The insulin variance was measured with enzyme-linked immunosorbent assay (ELISA) (Mercodia, Ltd. Sweden).

[2] = test system: type 2 diabetes mice (nicotinamide/streptozotocin + high fat diet); assay: Fasting blood glucose of drug-induced diabetic mice; details: dose not printed, one month
Procedure: as §1, §2, §3

[3] = test system: type 2 diabetes mice (nicotinamide/streptozotocin + high fat diet); assay: Glycated hemoglobin (HbA1c) of drug-induced diabetic mice; details: dose not printed, one month
Procedure: as §1, §2, §3

[4] = test system: type 2 diabetes mice (nicotinamide/streptozotocin + high fat diet); assay: HOMA-IR index of drug-induced diabetic mice; details: dose not printed, one month
Procedure: as §1, §2
The index of homeostasis model assessment for insulin resistance (HOMA-IR) was calculated from the following formula:
HOMA-IR index=insulin (μU/ml)×glucose (mmol/L)/22.5.

[5] = test system: type 2 diabetes mice (nicotinamide/streptozotocin + high fat diet); assay: Oral glucose tolerance assay (OGTT) in drug-induced diabetic mice; details: metformin group, dose not given
Procedure: as §1, §2, §3

Structure (SMILES) | insulin [1] | Fasting blood glucose [2] | Glycated hemoglobin (HbA1c) [3] | HOMA-IR [4] | glucose tolerance (OGTT) [5] | HOMA-IR ([4]; listed as metformin)
NCC(=O)O [Glycine] | 12.47 ± 2.36 | 182.88 ± 11.20 | 3.71 ± 0.03 | 5.23 ± 1.73 | – | –
CN(C)C(=N)N=C(N)N [Metformin] | 11.11 ± 6.47 | 169.00 ± 10.77 | 3.57 ± 0.04 | 4.53 ± 1.42 | improved | 4.53
